Measured values from ChEMBL document CHEMBL5032532, “Synthesis of xanthosine 2-phosphate diesters via phosphitylation of the carbonyl group” (Bioorg Med Chem Lett, 2021).

Experiments:
[1] = Chemical stability in PBS buffer at pH 6.8 assessed as compound hydrolysis at 20 mM measured after 7 hrs by RP-HPLC analysis; format: physicochemical; settings: read-out: Drug degradation
[2] = Chemical stability in PBS buffer at pH 4.8 assessed as compound hydrolysis at 20 mM measured after 7 hrs by RP-HPLC analysis; format: physicochemical; settings: read-out: Drug degradation
[3] = Chemical stability in PBS buffer at pH 11.1 assessed as compound hydrolysis at 20 mM measured upto 8 hrs by RP-HPLC analysis; format: physicochemical; settings: pH 11.1, 8 h, 20000 µM
[4] = Chemical stability in human serum assessed as compound hydrolysis at 20 mM measured upto 8 hrs by RP-HPLC analysis; format: physicochemical, cell-free; settings: 20000 µM

## CCN(CC)CC.O=c1[nH]c(OP(=O)(O)Oc2ccccc2)nc2c1ncn2[C@@H]1O[C@H](CO)[C@@H](O)[C@H]1O
[1]
  degraded at 7 h, 20000 µM: 40%
[2]
  degraded at 7 h, 20000 µM: 50%
[3]
  Stability: Stable
[4]
  Stability: Unstable
